This assay has as its target HPK1 (MAP4K1) (Homo sapiens, UniProt Q92918). Put plainly: FRET Assay for HPK1 (MAP4K1): one step binding assay, displacement of labeled tracer. The note with it: for inhibition at 1 µM: 1 μM compound; for inhibition at 1 µM / inhibition at 10 µM: FRET ratio 665/620, percent of control; for inhibition at 10 µM: 10 μM compound; for IC50: dose response curve, nonlinear regression. In short, it runs like this: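 Percent inhibition at 1.0 and 10.0 μM and IC50 by nonlinear regression were derived from loss of FRET signal versus control. The signal runs from Eu-anti-GST antibody (4 nM) bound to 10 nM HPK1 kinase to Alexa Fluor 647 Kinase Tracer 222 (20 nM), added after a 15-min on-ice compound pre-incubation. Binding then proceeded 1 h at room temperature in HEPES pH 7.5 buffer with 10 mM MgCl2, 1 mM EGTA, 0.01% Brij-35 and 3% DMSO.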

Chain of HPK1 (MAP4K1) (Q92918 whole entry): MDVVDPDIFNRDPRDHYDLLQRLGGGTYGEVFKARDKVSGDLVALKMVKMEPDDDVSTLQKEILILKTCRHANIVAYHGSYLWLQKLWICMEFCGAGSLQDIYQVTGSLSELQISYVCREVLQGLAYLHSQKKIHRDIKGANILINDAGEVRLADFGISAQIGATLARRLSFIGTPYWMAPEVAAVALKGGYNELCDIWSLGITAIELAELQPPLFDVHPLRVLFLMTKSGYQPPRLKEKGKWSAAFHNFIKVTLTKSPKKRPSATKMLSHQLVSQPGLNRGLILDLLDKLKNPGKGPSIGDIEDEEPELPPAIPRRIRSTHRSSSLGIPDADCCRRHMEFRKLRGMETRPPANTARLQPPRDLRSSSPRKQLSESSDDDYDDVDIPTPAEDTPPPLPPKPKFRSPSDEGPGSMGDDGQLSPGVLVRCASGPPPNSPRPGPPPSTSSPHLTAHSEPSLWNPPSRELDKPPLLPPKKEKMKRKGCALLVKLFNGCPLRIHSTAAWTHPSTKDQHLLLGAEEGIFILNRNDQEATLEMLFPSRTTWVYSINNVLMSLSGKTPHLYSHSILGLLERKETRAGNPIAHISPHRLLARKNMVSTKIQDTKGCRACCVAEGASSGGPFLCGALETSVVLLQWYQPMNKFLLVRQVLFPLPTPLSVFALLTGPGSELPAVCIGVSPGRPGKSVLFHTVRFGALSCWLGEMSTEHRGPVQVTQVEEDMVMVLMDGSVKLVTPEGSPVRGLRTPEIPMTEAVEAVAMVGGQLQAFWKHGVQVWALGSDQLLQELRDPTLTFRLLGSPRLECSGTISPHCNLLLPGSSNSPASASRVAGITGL

Take `C/C(Nc1cnn(C)c1)=C1/C(=O)Nc2cnc(-c3cncc(N)c3C)cc21` [Example 51, (Z)-5-(5-Amino-4-methylpyridin-3-yl)-3-(1-((1-methyl-1H-pyrazol-4-yl)amino)ethylidene)-1H-pyrrolo[2,3-c]pyridin-2(3H)-one]: the inhibition (commonly the relative decrease from the control value, in per cent) at 1 µM was found to be 81.2%; the inhibition at 10 µM worked out at 84.2%; the IC50 (in general, the concentration that inhibits the measured activity by half) is under 50 nM.

Turning to `C/C(Nc1cc(C)n(C)n1)=C1/C(=O)Nc2cnc(-c3c(C)cccc3F)cc21` [Example 191, (Z)-3-(1-((1,5-dimethyl-1H-pyrazol-3-yl)amino)ethylidene)-5-(2-fluoro-6-methylphenyl)-1H-pyrrolo[2,3-c]pyridin-2(3H)-one], the inhibition at 1 µM is 69.6%, the inhibition at 10 µM is 82.2% and the half-inhibitory concentration (IC50) was under 50 nM.

`C/C(Nc1cnn(CC(F)F)c1)=C1/C(=O)Nc2cnc(-c3cnccc3C)cc21` [Example 61, (Z)-3-(1-((1-(2,2-Difluoroethyl)-1H-pyrazol 4-yl)amino)ethylidene)-5-(4-methylpyridin-3-yl)-1H pyrrolo[2,3-c]pyridin-2(3H)-one]: the inhibition at 1 µM is 71.6%, the inhibition at 10 µM worked out at 81.3% and the IC50 is under 50 nM.

On to `C/C(Nc1cc(C)n(C[C@H](C)O)n1)=C1/C(=O)Nc2cnc(-c3c(C)cccc3F)cc21` [Example 209, (S,Z)-5-(2-Fluoro-6-methylphenyl)-3-(1-((1-(2-hydroxypropyl)-5-methyl-1H-pyrazol-3-yl)amino)ethylidene)-1H-pyrrolo[2,3-c]pyridin-2(3H)-one], for which the inhibition at 1 µM came to 75.7%, the inhibition at 10 µM came out at 78.9% and the IC50 was under 50 nM.

On to `C/C(Nc1cnn(C2CC2)c1)=C1/C(=O)Nc2cnc(-c3cnccc3C)cc21` [Example 49, (Z)-3-(1-((1-Cyclopropyl-1H-pyrazol-4-yl)amino)ethylidene)-5-(4-methylpyridin-3-yl)-1H-pyrrolo[2,3-c]pyridin-2(3H)-one], for which the inhibition at 1 µM is 64.3%, the inhibition at 10 µM amounted to 74.2% and the IC50 was under 50 nM.

As for `C/C(Nc1ccn(C)n1)=C1/C(=O)Nc2cnc(-c3cnccc3C)cc21` [Example 54, (Z)-3-(1-((1-methyl-1H-pyrazol-3-yl)amino)ethylidene)-5-(4-methylpyridin-3-yl)-1H-pyrrolo[2,3-c]pyridin-2(3H)-one], the inhibition at 1 µM was 88.5%, the inhibition at 10 µM amounted to 86.1% and the IC50 was under 50 nM.

With `COc1cccc(F)c1-c1cc2c(cn1)NC(=O)/C2=C(/C)Nc1cnn(C(C)C#N)c1` (stereo not drawn) [Example 31, (Z)-2-(4-((1-(5-(2-Fluoro-6-methoxyphenyl)-2-oxo-1H-pyrrolo[2,3-c]pyridin-3(2H)-ylidene)ethyl)amino)-1H-pyrazol-1-yl)propanenitrile], the inhibition at 1 µM is 86.9%, the inhibition at 10 µM stood at 92.3% and the IC50 is under 50 nM.

For `C/C(Nc1cnn(C(F)F)c1)=C1/C(=O)Nc2cnc(-c3cnccc3C)cc21` [Example 66, (Z)-3-(1-((1-(Difluoromethyl)-1H-pyrazol-4-yl)amino)ethylidene)-5-(4-methylpyridin-3-yl)-1H-pyrrolo[2,3-c]pyridin-2(3H)-one], the inhibition at 1 µM stood at 74.1%, the inhibition at 10 µM was determined as 76.2% and the IC50 is under 50 nM.

On to `C/C(Nc1cnn(CC2CC2)c1)=C1/C(=O)Nc2cnc(-c3cnccc3C)cc21` [Example 67, (Z)-3-(1-((1-(Cyclopropylmethyl)-1H-pyrazol-4-yl)amino)ethylidene)-5-(4-methylpyridin-3-yl)-1H-pyrrolo[2,3-c]pyridin-2(3H)-one], for which the inhibition at 1 µM came to 74%, the inhibition at 10 µM came out at 71.4% and the half-maximal inhibitory concentration (IC50) was under 50 nM.

The values are drawn from patent US20230009626A1 (ICHNOS SCIENCES S.A., priority 2018, published 2023).
